# According to ChEMBL document CHEMBL1150662, “A new digalactosyl diacylglycerol from a cultured marine dinoflagellate Heterocapsa circularisquama” (J Nat Prod, 2002):
# Experiment: Cytotoxicity against oysters heart cells at 0.5 ug/ml
# Assay type: cell-based
# Details: ostreidae
row,Structure (SMILES),Activity
1,CC/C=C\C/C=C\C/C=C\C/C=C\C/C=C\CC(=O)OC[C@H](CO[C@@H]1O[C@H](CO)[C@H](O)[C@H](O)[C@H]1O)OC(=O)C/C=C\C/C=C\C/C=C\C/C=C\C/C=C\CC,Toxic
2,CC/C=C\C/C=C\C/C=C\C/C=C\C/C=C\CC(=O)OC[C@H](CO[C@@H]1O[C@H](CO[C@H]2O[C@H](CO)[C@H](O)[C@H](O)[C@H]2O)[C@H](O)[C@H](O)[C@H]1O)OC(=O)CCCC/C=C\C/C=C\C/C=C\C/C=C\CC,Toxic
3,"CC/C=C\C/C=C\C/C=C\C/C=C\C/C=C\CC(=O)OC[C@H](CO[C@@H]1O[C@H](CO)[C@H](O)[C@H](O)C1O)OC(=O)CCCC/C=C\C/C=C\C/C=C\C/C=C\CC (single isomer, unassigned)",Toxic
